Results as given in patent US9463242B2, “Methods for treating prostate cancer” (UNIVERSITY OF ROCHESTER, priority 2011, dated 2016).
“Also recorded” adds a separate entry of the source. Where two headings read alike, the source gives them in different places.

Columns and labels:
[1] = system: PCa S/P cells (LNCaP CD133+); experiment: MTT growth assay of prostate cancer S/P cells treated with inhibitors; type: cell-based, human; conditions: for IC50: Homo sapiens, LNCaP; for inhibitory effect on proliferation of the S/P cells: used individually
Experimental: For an MTT assay, cells were incubated in 12- or 24-well culture plates (10^5-10^3 cells/well) and cultured. At 2, 4, and 6 days, 3-(4,5-dimethylthiazol-2-yl)-2,5-diphenyltetrazolium bromide (MTT; 0.5 mg/mL; Sigma) was added. After 2 hours of reaction, absorbances at 570 nm were measured. For soft agar colony formation assay, cell suspension (1×10^4 cells/well in 6 well culture plates) of mixture of 1.5% agarose (Cambrex Bio Science Rockland, Ill.) and 2× medium (2 ml) was overlaid onto the solidified mixture of agarose base (final agarose concentration will be 0.75%). Two mL of normal medium containing various concentrations of DHT was added on top of the solidified agarose cell layer. All conditions were performed in triplicate. The plates were incubated at 37° C. in a humidified incubator for 21 days. The colonies developed were visualized by staining with 1% crystal violet. The colonies larger than 1 mm in diameter were counted. For sphere formation assay, a single cell suspension (1×10^3, in 50 μl medium) was mixed with cold Matrigel 50 μl (kept on ice) and the mixture was placed along the rim of the 24 well with minimum triplicate experiments. The culture plates were placed in a 37° C. incubator for 10 min to let the mixture solidify and 500 μl medium was then added into the well. Cells were grown in 5% RPMI (for human PCa S/P cells) and epithelial basal medium (PrEBM) (Lonza) supplemented with growth supplement (Lonza) (for mouse cells) with addition of various concentrations of DHT (1 or 10 nM). Spheres numbers were counted after 7 to 14 days under Olympus light microscope and size differences were also examined.
The effect of combined use of these molecules to block self-renewal/proliferation of the S/P cells was tested. […] The effect of a combinations of two drugs selected among three drugs, LY294002 (inhibitor of Akt pathway), γ-TT, and 5-AZA was tested. […] The test results of the combination therapies using soft agar (FIG. 19C) and sphere formation assays (FIG. 19D) confirmed the MTT results. One method of two drug combination therapy was selected based on these three growth assays. This combination is the use of γ-TT and 5-AZA. From all the in vitro tests including an LD test, a minimum dose of these drugs that kills S/P cells was determined. This strategy was used for an in vivo study. When tumors developed the mice were castrated and ASC-J9 was injected, Two or three combinations of the drugs that target S/P population cells were administered. A tumor development curve indicated the recurrence of castration resistant tumors.

[2] = system: AR expression in LNCaP CD133+ cells; experiment: Induction of AR expression in LNCaP CD133+ cells; type: cell-based, human
AR = target: T1, AR (Homo sapiens, UniProt P10275); conditions: stated as known; cited from earlier work
T1 sequence (P10275 1-920): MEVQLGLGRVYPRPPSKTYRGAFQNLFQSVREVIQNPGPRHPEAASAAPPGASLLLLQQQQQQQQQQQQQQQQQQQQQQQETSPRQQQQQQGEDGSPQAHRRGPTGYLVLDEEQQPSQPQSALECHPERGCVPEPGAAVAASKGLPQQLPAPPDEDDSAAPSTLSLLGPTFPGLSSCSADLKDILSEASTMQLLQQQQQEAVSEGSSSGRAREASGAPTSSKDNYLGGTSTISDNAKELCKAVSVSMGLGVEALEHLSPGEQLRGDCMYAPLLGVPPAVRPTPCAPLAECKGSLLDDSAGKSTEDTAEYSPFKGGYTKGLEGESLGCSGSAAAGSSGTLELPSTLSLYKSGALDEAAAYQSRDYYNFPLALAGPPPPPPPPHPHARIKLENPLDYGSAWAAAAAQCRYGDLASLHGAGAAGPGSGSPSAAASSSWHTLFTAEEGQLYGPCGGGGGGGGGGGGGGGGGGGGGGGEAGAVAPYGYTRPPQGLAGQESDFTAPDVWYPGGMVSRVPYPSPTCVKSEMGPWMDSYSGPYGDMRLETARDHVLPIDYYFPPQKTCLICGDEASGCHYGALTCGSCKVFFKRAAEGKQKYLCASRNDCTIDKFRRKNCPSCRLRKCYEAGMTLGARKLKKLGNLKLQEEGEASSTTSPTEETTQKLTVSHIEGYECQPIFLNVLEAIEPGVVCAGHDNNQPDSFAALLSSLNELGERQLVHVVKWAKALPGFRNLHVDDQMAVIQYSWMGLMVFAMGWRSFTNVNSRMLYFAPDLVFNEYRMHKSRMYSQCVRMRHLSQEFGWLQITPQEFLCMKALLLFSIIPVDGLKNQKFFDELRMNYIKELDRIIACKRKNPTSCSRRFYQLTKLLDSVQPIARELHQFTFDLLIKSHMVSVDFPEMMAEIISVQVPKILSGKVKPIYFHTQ

[3] = stated as known; cited from earlier work
LNCaP cells = experiment: CD133+ population after continuous Casodex treatment, LNCaP; type: cell-based, human; conditions: Casodex for 5 wks continuously
Experimental: (§1) In order to investigate whether S/P cell numbers increase after ADT/castration, LNCaP cells were treated with anti-androgen, Casodex, to mimic castration conditions in vitro. […] Similar experiments were performed with C4-2 and LAPC-4 cell lines.

C4-2 cells = experiment: CD133+ population after Casodex treatment, C4-2; type: cell-based, human; conditions: C4-2, Casodex treatment
Experimental: as §1

[4] = system: primary cultured human stromal cells (ps-1); experiment: TGF-β1 treatment of primary cultured human prostate stromal cells, α-SMA and calponin staining; type: cell-based; conditions: different concentrations of TGF-β1 for 1 to 5 days
Experimental: (§2) In FIG. 5a, the expression of TGF-β1 was investigated by IHC staining. The decreased expression of TGF-β1 was found in pes-ARKO epithelium. […] In FIG. 5c, to evaluate the TGF-β1 effect on the differentiation of smooth muscle cells, the primary cultured human prostate stromal cells were treated with different doses of TGF-β1. The expression of smooth muscle α-actin, as shown in FIG. 5c and FIG. 5d, and calponin, as shown in FIG. 5e and FIG. 5f, were detected following treatment for 1 to 5 days.
(§3) The expression of TGF-β1 (FIG. 5a) and TGF-β1 downstream signals was detected by immunohistochemistry (IHC) staining in 24 week old wild type and pes-ARKO prostate epithelium. The TGF-β1 expression and its downstream signals were lower in the epithelium of pes-ARKO mice than those from wild type mice. […] MyoD and Myogenin expression, which are deeply involved in the stromal smooth muscle maturation and differentiation, was also modulated by TGF-β1 stimulation (FIG. 5g).

[5] = system: MyoD and Myogenin expression in primary cultured human prostate stromal cells; experiment: Expression of smooth muscle maturation genes after TGF-β1 treatment; type: cell-based; conditions: 10 ng/ml TGF-β1 treatment
Experimental: as §2, §3

With `Nc1ncn([C@H]2C[C@H](O)[C@@H](CO)O2)c(=O)n1` [5-AZA, 5-aza-2′-deoxycytidine] the IC50 ([1]; read-out: IC50 of the individual compound) was 2500 to 5000 nM, the “inhibitory effect on proliferation of the S/P cells” value [1] was “inhibits proliferation” and the AR expression [2] was “Induction of AR expression”.

For `COc1ccc(/C=C/C(=O)/C=C(O)/C=C/c2ccc(OC)c(OC)c2)cc1OC` [ASC-J9], the AR degrading activity (AR) is given as “AR degrading activity” and the toxicity [3] is given as “without toxicity”.

In the case of `CC(O)(CS(=O)(=O)c1ccc(F)cc1)C(=O)Nc1ccc(C#N)c(C(F)(F)F)c1` (stereo not drawn) [Casodex], the “CD133+ population cells” value (LNCaP cells) is reported as “significantly increased; also recorded: increase” and the “CD133+ population cells” value (C4-2 cells) is reported as “not as significant as in LNCaP cells”.

With `O=c1cc(N2CCOCC2)oc2c(-c3ccccc3)cccc12` [LY294002] the IC50 ([1]; LY294002 + γ-TT + 5-AZA together, S/P cells, MTT, read-out: IC50 of the individual compound when three compounds were used together) was < 1000 nM and the IC50 ([1]; compound used alone, S/P cells, MTT, read-out: IC50 of the individual compound) was 2500 to 5000 nM.

With `CC(C)=CCC/C(C)=C/CC/C(C)=C/CC[C@]1(C)CCc2cc(O)c(C)c(C)c2O1` [γ-TT, γ-tocotrienol] the “inhibitory effect on proliferation of the S/P cells” value [1] was “inhibitory effect”.

With “TGF-β1: TGF-β1 protein used to treat primary cultured human prostate stromal cells” the “number of mature stromal smooth muscle cells (α-SMA and calponin staining)” value [4] was “significantly dependent on the higher concentration and longer duration” and the “MyoD and Myogenin expression” value [5] was “modulated”.
